Laboratory results: patent publication US9814704B2, “Substituted pyrrolo[2,3-b]pyridines as MLK inhibitors” (The University of Rochester, priority 2008, dated 2017)
Like-named read-outs stand apart in the source and are kept apart here.

Biological target: MLK3 (Homo sapiens (Human), UniProt Q16584)
Experiment: Radiometric Filter Plate MLK3 Assay
Assay type: biochemical
Conditions: read-out: MK3 IC50
Method: Radiometric Filter Plate MLK3 Assay
After a twenty minute incubation, the reactions were washed through filter plates and read on a scintillation counter. Results are shown in Table 4 below, in which +++ indicates ≦0.1 μM, ++ indicates >0.1 μM and ≦1 μM, and + indicates >1 μM.

[1] = 200 ng (130 nM) MLK3, 1 μM inactive MKK7b, 2 μM cold ATP (Km), 33P ATP, twenty minute incubation

Sequence of MLK3 (Q16584 whole entry): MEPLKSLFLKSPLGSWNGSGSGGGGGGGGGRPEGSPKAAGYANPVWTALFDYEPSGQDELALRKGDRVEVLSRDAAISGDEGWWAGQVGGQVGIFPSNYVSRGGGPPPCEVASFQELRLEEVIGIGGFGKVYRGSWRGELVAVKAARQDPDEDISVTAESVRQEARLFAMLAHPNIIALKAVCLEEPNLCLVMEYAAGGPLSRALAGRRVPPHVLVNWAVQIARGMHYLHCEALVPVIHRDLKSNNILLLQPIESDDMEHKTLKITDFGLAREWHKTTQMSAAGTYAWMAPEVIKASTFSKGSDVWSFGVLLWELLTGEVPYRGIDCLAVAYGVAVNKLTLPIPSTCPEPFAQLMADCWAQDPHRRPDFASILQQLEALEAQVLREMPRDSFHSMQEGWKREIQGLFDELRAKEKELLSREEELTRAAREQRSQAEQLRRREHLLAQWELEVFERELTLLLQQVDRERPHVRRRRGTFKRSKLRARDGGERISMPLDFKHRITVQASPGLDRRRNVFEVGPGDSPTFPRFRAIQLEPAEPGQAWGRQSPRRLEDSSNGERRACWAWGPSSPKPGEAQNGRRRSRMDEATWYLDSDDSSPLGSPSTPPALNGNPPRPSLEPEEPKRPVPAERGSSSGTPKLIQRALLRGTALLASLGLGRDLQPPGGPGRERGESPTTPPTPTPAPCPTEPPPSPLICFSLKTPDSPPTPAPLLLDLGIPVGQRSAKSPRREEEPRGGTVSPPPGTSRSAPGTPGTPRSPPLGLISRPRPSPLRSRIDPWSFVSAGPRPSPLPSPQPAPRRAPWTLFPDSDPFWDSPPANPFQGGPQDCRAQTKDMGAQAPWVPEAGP

Compound	IC50 [1]	IC50
COc1ccc(-c2cnc3[nH]c(=O)n(-c4ccc5[nH]ccc5c4)c3n2)cc1F [Example 49, 6-(3-fluoro-4-methoxyphenyl)-1-(1H-indol-5-yl)-1H-imidazo[4,5-b]pyrazin-2(3H)-one]	> 1000 nM	–
COc1ccc(-c2cnc3[nH]c(=O)n(-c4ccc5[nH]ccc5c4)c3n2)cc1N [Example 50, 6-(3-amino-4-methoxyphenyl)-1-(1H-indol-5-yl)-1H-imidazo[4,5-b]pyrazin-2(3H)-one]	–	100 to 1000 nM
O=c1[nH]c2ncc(-c3ccc(N4CCOCC4)cc3)nc2n1-c1ccc2[nH]ccc2c1 [Example 52, 1-(1H-indol-5-yl)-6-(4-morpholinophenyl)-1H-imidazo[4,5-b]pyrazin-2(3H)-one]	–	100 to 1000 nM
O=c1[nH]c2ncc(-c3cccc(O)c3)nc2n1-c1ccc2[nH]ccc2c1 [Example 54, 6-(3-hydroxyphenyl)-1-(1H-indol-5-yl)-1H-imidazo[4,5-b]pyrazin-2(3H)-one]	–	100 to 1000 nM
COc1cc(-c2cnc3[nH]c(=O)n(-c4ccc5[nH]ccc5c4)c3n2)ccc1O [Example 55, 6-(4-hydroxy-3-methoxyphenyl)-1-(1H-indol-5-yl)-1H-imidazo[4,5-b]pyrazin-2(3H)-one]	< 100 nM	–
O=c1[nH]c2ncc(-c3ccc4cc[nH]c4c3)nc2n1-c1ccc2[nH]ccc2c1 [Example 56, 1-(1H-indol-5-yl)-6-(1H-indol-6-yl)-1H-imidazo[4,5-b]pyrazin-2(3H)-one]	> 1000 nM	–
COc1cc(-c2cnc3[nH]c(=O)n(-c4ccc5[nH]ccc5c4)c3n2)ccc1OCCN1CCOCC1 [Example 57, 1-(1H-indol-5-yl)-6-(3-methoxy-4-(2-morpholinoethoxy)phenyl)-1H-imidazo[4,5-b]pyrazin-2(3H)-one]	< 100 nM	–
O=c1[nH]c2ncc(-c3cc(F)c(O)c(F)c3)nc2n1-c1ccc2[nH]ccc2c1 [Example 59, 6-(3,5-difluoro-4-hydroxyphenyl)-1-(1H-indol-5-yl)-1H-imidazo[4,5-b]pyrazin-2(3H)-one]	< 100 nM	–
O=c1[nH]c2ncc(-c3ccc4c(c3)OCCO4)nc2n1-c1ccc2[nH]ccc2c1 [Example 63, 6-(2,3-dihydrobenzo[b][1,4]dioxin-6-yl)-1-(1H-indol-5-yl)-1H-imidazo[4,5-b]pyrazin-2(3H)-one]	–	100 to 1000 nM
CN1CCN(c2cc(-c3cnc4[nH]c(=O)n(-c5ccc6[nH]ccc6c5)c4n3)ccn2)CC1 [Example 66, 1-(1H-indol-5-yl)-6-(2-(4-methylpiperazin-1-yl)pyridin-4-yl)-1H-imidazo[4,5-b]pyrazin-2(3H)-one]	> 1000 nM	–
COc1cc(-c2cnc3[nH]c(=O)n(-c4ccc5[nH]ccc5c4)c3n2)ccc1OCCN1CCNCC1 [Example 67, 1-(1H-indol-5-yl)-6-(3-methoxy-4-(2-(piperazin-1-yl)ethoxy)phenyl)-1H-imidazo[4,5-b]pyrazin-2(3H)-one]	–	100 to 1000 nM
COc1ccc(-n2c(=O)[nH]c3ncc(-c4cc(OC)c(OC)c(OC)c4)nc32)cc1 [Example 68, 1-(4-methoxyphenyl)-6-(3,4,5-trimethoxyphenyl)-1H-imidazo[4,5-b]pyrazin-2(3H)-one]	–	100 to 1000 nM
COc1ccc(-n2c(=O)[nH]c3ncc(-c4ccc(OC)c(OC)c4)nc32)cc1 [Example 69, 6-(3,4-dimethoxyphenyl)-1-(4-methoxyphenyl)-1H-imidazo[4,5-b]pyrazin-2(3H)-one]	> 1000 nM	–
COc1ccc(-n2c(=O)[nH]c3ncc(-c4ccc(O)cc4)nc32)cc1 [Example 70, 6-(4-hydroxyphenyl)-1-(4-methoxyphenyl)-1H-imidazo[4,5-b]pyrazin-2(3H)-one]	> 1000 nM	–
COc1ccc(-n2c(=O)[nH]c3ncc(-c4ccncc4)nc32)cc1 [Example 71, 1-(4-methoxyphenyl)-6-(pyridin-4-yl)-1H-imidazo[4,5-b]pyrazin-2(3H)-one]	> 1000 nM	–
Cc1cc2cc(-n3c(=O)[nH]c4ncc(-c5cc(Cl)cc(Cl)c5)nc43)ccc2[nH]1 [Example 73, 6-(3,5-dichlorophenyl)-1-(2-methyl-1H-indol-5-yl)-1H-imidazo[4,5-b]pyrazin-2(3H)-one]	> 1000 nM	–
COc1ccc(-c2cnc3[nH]c(=O)n(C4CCCC4)c3n2)cc1OC [Example 75, 1-cyclopentyl-6-(3,4-dimethoxyphenyl)-1H-imidazo[4,5-b]pyrazin-2(3H)-one]	> 1000 nM	–
O=c1[nH]c2ncc(-c3ccc(O)cc3)nc2n1C1CCCC1 [Example 76, 1-cyclopentyl-6-(4-hydroxyphenyl)-1H-imidazo[4,5-b]pyrazin-2(3H)-one]	–	100 to 1000 nM
O=c1[nH]c2ncc(-c3ccncc3)nc2n1C1CCCC1 [Example 77, 1-cyclopentyl-6-(pyridin-4-yl)-1H-imidazo[4,5-b]pyrazin-2(3H)-one]	> 1000 nM	–
COc1cc(-c2cnc3[nH]c(=O)n(CC4CC4)c3n2)cc(OC)c1OC [Example 78, 1-(cyclopropylmethyl)-6-(3,4,5-trimethoxyphenyl)-1H-imidazo[4,5-b]pyrazin-2(3H)-one]	–	100 to 1000 nM
COc1ccc(-c2cnc3[nH]c(=O)n(CC4CC4)c3n2)cc1OC [Example 79, 1-(cyclopropylmethyl)-6-(3,4-dimethoxyphenyl)-1H-imidazo[4,5-b]pyrazin-2(3H)-one]	–	100 to 1000 nM
O=c1[nH]c2ncc(-c3ccc(O)cc3)nc2n1CC1CC1 [Example 81, 1-(cyclopropylmethyl)-6-(4-hydroxyphenyl)-1H-imidazo[4,5-b]pyrazin-2(3H)-one]	> 1000 nM	–
O=c1[nH]c2ncc(-c3ccncc3)nc2n1CC1CC1 [Example 82, 1-(cyclopropylmethyl)-6-(pyridin-4-yl)-1H-imidazo[4,5-b]pyrazin-2(3H)-one]	> 1000 nM	–
O=c1[nH]c2ncc(-c3ccc(N4CCOCC4)cc3)nc2n1CC1CC1 [Example 86, 1-(cyclopropylmethyl)-6-(4-morpholinophenyl)-1H-imidazo[4,5-b]pyrazin-2(3H)-one]	> 1000 nM	–
O=c1[nH]c2ncc(-c3ccc(N4CCOCC4)cc3)nc2n1-c1ccc2[nH]ncc2c1 [Example 89, 1-(1H-indazol-5-yl)-6-(4-morpholinophenyl)-1H-imidazo[4,5-b]pyrazin-2(3H)-one]	> 1000 nM	–
COc1cc(-c2cnc3[nH]c(=O)n(-c4ccc5cn[nH]c5c4)c3n2)cc(OC)c1OC [Example 90, 1-(1H-indazol-6-yl)-6-(3,4,5-trimethoxyphenyl)-1H-imidazo[4,5-b]pyrazin-2(3H)-one]	–	100 to 1000 nM

Results, then the compound that gave them:

IC50 [1]	IC50	Compound
–	100 to 1000 nM	O=c1[nH]c2ncc(-c3ccc4[nH]ccc4c3)nc2n1-c1ccc2[nH]ccc2c1 [Example 53, 1,6-di(1H-indol-5-yl)-1H-imidazo[4,5-b]pyrazin-2(3H)-one]
–	100 to 1000 nM	O=c1[nH]c2ncc(-c3cc(F)c(O)cc3F)nc2n1-c1ccc2[nH]ccc2c1 [Example 58, 6-(2,5-difluoro-4-hydroxyphenyl)-1-(1H-indol-5-yl)-1H-imidazo[4,5-b]pyrazin-2(3H)-one]
< 100 nM	–	COc1cc(-c2cnc3[nH]c(=O)n(-c4ccc5[nH]ccc5c4)c3n2)ccc1N [Example 60, 6-(4-amino-3-methoxyphenyl)-1-(1H-indol-5-yl)-1H-imidazo[4,5-b]pyrazin-2(3H)-one]
> 1000 nM	–	O=c1[nH]c2ncc(-c3cc(F)cc(F)c3)nc2n1-c1ccc2[nH]ccc2c1 [Example 61, 6-(3,5-difluorophenyl)-1-(1H-indol-5-yl)-1H-imidazo[4,5-b]pyrazin-2(3H)-one]
< 100 nM	–	COc1cc(-c2cnc3[nH]c(=O)n(-c4ccc5[nH]ccc5c4)c3n2)cc(OC)c1O [Example 62, 6-(4-hydroxy-3,5-dimethoxyphenyl)-1-(1H-indol-5-yl)-1H-imidazo[4,5-b]pyrazin-2(3H)-one]
> 1000 nM	–	COc1cc(OC)cc(-c2cnc3[nH]c(=O)n(-c4ccc5[nH]ccc5c4)c3n2)c1 [Example 65, 6-(3,5-dimethoxyphenyl)-1-(1H-indol-5-yl)-1H-imidazo[4,5-b]pyrazin-2(3H)-one]
< 100 nM	–	COc1cc(-c2cnc3[nH]c(=O)n(-c4ccc5[nH]c(C)cc5c4)c3n2)cc(OC)c1OC [Example 72, 1-(2-methyl-1H-indol-5-yl)-6-(3,4,5-trimethoxyphenyl)-1H-imidazo[4,5-b]pyrazin-2(3H)-one]
< 100 nM	–	COc1cc(-c2cnc3[nH]c(=O)n(C4CCCC4)c3n2)cc(OC)c1OC [Example 74, 1-cyclopentyl-6-(3,4,5-trimethoxyphenyl)-1H-imidazo[4,5-b]pyrazin-2(3H)-one]
> 1000 nM	–	O=c1[nH]c2ncc(-c3cc(Cl)cc(Cl)c3)nc2n1CC1CC1 [Example 80, 1-(cyclopropylmethyl)-6-(3,5-dichlorophenyl)-1H-imidazo[4,5-b]pyrazin-2(3H)-one]
–	100 to 1000 nM	Cc1cc2cc(-n3c(=O)[nH]c4ncc(-c5ccc(O)cc5)nc43)ccc2[nH]1 [Example 84, 6-(4-hydroxyphenyl)-1-(2-methyl-1H-indol-5-yl)-1H-imidazo[4,5-b]pyrazin-2(3H)-one]
> 1000 nM	–	Cc1cc2cc(-n3c(=O)[nH]c4ncc(-c5ccncc5)nc43)ccc2[nH]1 [Example 85, 1-(2-methyl-1H-indol-5-yl)-6-(pyridin-4-yl)-1H-imidazo[4,5-b]pyrazin-2(3H)-one]
> 1000 nM	–	COc1ccc(-c2cnc3[nH]c(=O)n(-c4ccc5[nH]ncc5c4)c3n2)cc1OC [Example 87, 6-(3,4-dimethoxyphenyl)-1-(1H-indazol-5-yl)-1H-imidazo[4,5-b]pyrazin-2(3H)-one]
> 1000 nM	–	O=c1[nH]c2ncc(-c3ccncc3)nc2n1-c1ccc2[nH]ncc2c1 [Example 88, 1-(1H-indazol-5-yl)-6-(pyridin-4-yl)-1H-imidazo[4,5-b]pyrazin-2(3H)-one]
–	100 to 1000 nM	COc1ccc(-c2cnc3[nH]c(=O)n(-c4ccc5cn[nH]c5c4)c3n2)cc1OC [Example 91, 6-(3,4-dimethoxyphenyl)-1-(1H-indazol-6-yl)-1H-imidazo[4,5-b]pyrazin-2(3H)-one]
> 1000 nM	–	O=c1[nH]c2ncc(-c3ccc(O)cc3)nc2n1-c1ccc2cn[nH]c2c1 [Example 92, 6-(4-hydroxyphenyl)-1-(1H-indazol-6-yl)-1H-imidazo[4,5-b]pyrazin-2(3H)-one]
